In patent publication US7709002B1, “Mutated ras peptides for generation of CD8+Cytotoxic T lymphocytes” (The United States of America as represented by the …, priority 1996, dated 2010):
Where no end group is shown, it is not given here.

Assays:
[1] = test system: T2 cell line as target of CD8+ CTL line of RAS patient 32; test: 51Cr-release cytotoxicity of CD8+ CTL line of RAS patient 32 against peptide-pulsed T2 targets; format: cell-based, human; conditions: peptide 10 μg/ml, IVS cycle 7 (FIG. 5)
Description: FIG. 5. Cytolytic activity by CD8^+ CTL line of RAS patient 32 is peptide-specific. The CD8^+ CTL line of RAS patient 32 (see FIG. 3) was assayed against the T2 cell line as a target, incubated with and without different ras peptides (10 μg/ml), as shown. In parallel, the extent of NK activity was evaluated against K562 cells. Cytotoxicity was determined by ^51Cr-release, and the results expressed at different E/T ratios following IVS cycle 7. Similar results were observed using the second, independently-derived CD8^+ CTL line as described in Table 6.
IVS cycles for evaluation of CD8^+ T cell responses from HLA-A2+Patients. Freshly-thawed PBMC (from ras patients 32 and 33), derived pre-vaccination and post-third vaccination, were enriched in T lymphocytes by passage over nylon wool columns (Robbins Scientific, Sunnyvale, Calif.) and then depleted of CD4^+ T cells by negative selection via panning on anti-CD4 MAb-coated T25 flasks (Applied Immune Sciences, Santa Clara, Calif.). For the first IVS cycle, CD8^+ enriched lymphocytes (5×10^5/well) were cultured in 24-well plates with irradiated, autologous PBMC (5×10^6/well) as APC which had been preincubated for 3 hours with the appropriate mutant ras peptide ([…]) plus human β2-microglobulin (10 μg/ml) (Calbiochem, San Diego, Calif.). […] IL-2 (10 U/ml) was added 3 days later. After an additional 7 days, viable cells (2-5×10^5/well) were re-cultured by weekly stimulation with APC pre-pulsed with peptide/β2-microglobulin, and IL-2 added one day later. After the third or fourth IVS cycle, autologous PBMC were replaced with EBV-transformed, autologous BLCL (5×10^5/well) as APC. […] CTL activity was evaluated from cultures 5 to 6 days after Ag restimulation.
Cytotoxic response. Cytotoxicity was examined by a conventional ^51Cr-release assay, as described (6). Briefly, target cells (i.e. T2, C1R-A2, BLCL, K562) were radiolabeled with 200 μCi of Na2[^51Cr]04 (Amersham) for 60 minutes at 37° C., followed by thorough washing to remove unincorporated isotope. Effectors and targets (1×10^4/well) were incubated in 96-well, U-bottomed plates (Costar) at various effector target (E/T) ratios in the absence and presence of peptide (+/−monoclonal antibody (MAb) directed against CD4, CD8 or HLA-A2 molecules (clone BB7.2 from ATCC)) for up to 6 hours. After incubation, supernatants were collected using a Supernatant Collection System (Skatron, Sterling, Va.) and radioactivity measured in a γ-counter (Packard Instruments, Downers Grove, Ill.). Cytotoxic activity was defined as percent specific release of ^51Cr and determined by the equation: [(experimentalcpm−spontaneouscpm)/maximumcpm−spontaneouscpm)]×100. Results were expressed as the mean±SEM of triplicate cultures. […]

[2] = test system: ras p21 codon 12 mutated carcinoma patients; test: Phase I vaccination of metastatic carcinoma patients with mutant ras 13-mer peptide in Detox adjuvant; format: in vivo, human; conditions: patient 32, 0.1 mg/vaccination x3 in Detox adjuvant, s.c.
From the text: Patient selection. Adult cancer patients with histologically confirmed diagnosis of adenocarcinoma of the colon, gastrointestinal tract, lung or pancreas with metastatic disease, were screened as potential candidates for this phase I clinical study. Tumor samples from these patients were examined for point mutations in the K-ras gene at codon 12 by polymerase chain reaction (PCR) of paraffin-embedded sections by methods known in the art. In addition to fulfilling all other essential inclusion criteria as specified in the FDA-approved NCI clinical protocol, those patients presenting the appropriate K-ras mutation were then selected for study entry.
Peptides and immunizations. Mutant ras 13-mer peptides used as immunogens were synthesized as clinical grade reagents under GMP conditions (Bachem, Torrance, Calif.: >97% purity by HPLC). Control and additional experimental peptides, which were used in vitro, either were prepared commercially (Bachem) or synthesized in the laboratory on an Applied Biosystems Model 432A personal peptide synthesizer (Foster City, Calif.) using Fmoc chemistry (>90% purity by HPLC). These reagent-grade products were dissolved in aqueous solution at 2 mg/ml, filter-sterilized and stored in aliquots at −70° C. The normal sequence of ras p21 reflecting positions 5-17 is […]([…]) (SEQ. ID NO. 1). […]

[3] = test system: post-vaccine PBMC of patient 32; test: Lymphoproliferation of post-vaccine PBMC of patient 32; format: cell-based, human; conditions: multiple IVS cycles
human HLA-A2 = target: T1, human HLA-A2 (Homo sapiens, UniProt P04439, D140Y/D185E/D98H/E176V/E277Q/G131W/G231S/I119V/I121R/I166T/I218V/L300P/L318F/N151K/N90K/P208A/P217A/Q86G/Q94H/R138H/R169H/T345S); test: HLA-A2 binding bioassay on T2 cells (flow cytometry); conditions: T2 bioassay
T1 construct: The 174CEM.T2 cell line (“T2”), (transport deletion mutant); endogenous in cells; host or cells: 174CEM.T2 (T2) human cell line

[4] = test system: HLA-A2+ peptide-pulsed targets; test: Generation and cytotoxicity of ras4-12(V12)-specific CD8+ CTL line from a normal HLA-A2+ donor; format: cell-based, human; conditions: wild-type printed as wild-type ras peptide
BALB/c mouse = test: Induction of MHC class I-restricted CD8+ CTL responses in the mouse; format: in vivo, mouse (BALB/c; H-2^d); conditions: H-2^d
From the text: The basis of immunogenicity, in part, was attributed to the introduction of the mutated Val12 residue, which created a dominant C-terminus anchor for MHC class I binding. The resulting CD8^+ CTL response, thus, likely reflected T cell receptor recognition of a previously unseen peptide/MHC complex. In contrast to the ras5-14 sequence, ras4-12(V12) only partly shared the consensus motif for HLA-A2 binding, as the leucine anchor shifted from position 2 to 3. Importantly, the introduction of the mutated Val12 residue, as in the mouse, now created a dominant C-terminus anchor. […] (See FIG. 6).

| Substance | Sensitization of T2 targets for lysis (in words) [1] | T cell response induced by vaccination [2] | CD4+ proliferative response against immunizing 13-mer peptide [3] | Binding to HLA-A2 on T2 cells (in words) (human HLA-A2) | Generation of peptide-specific CTL line / lysis of peptide-pulsed targets (in words) [4] | Induction of CD8+ CTL responses in mouse (BALB/c mouse) |
| --- | --- | --- | --- | --- | --- | --- |
| Lys-Leu-Val-Val-Val-Gly-Ala-Asp-Gly-Val-Gly-Lys-Ser [ras5-17(Asp12)] | did not appear to induce cytotoxicity | led to peptide-specific CD8^+ CTL activation | No specific CD4^+ proliferative response was observed | – | – | – |
| YKLVVVGAV [ras4-12(V12)] | – | – | – | specific, albeit weak, binding to HLA-A2 | A CD8^+ CTL line specific for ras4-12(V12) was then derived | resulted in the induction of MHC class I-restricted CD8^+ CTL responses |
